Test results from patent US12343335B2, “Pharmaceutical composition for treating multiple sclerosis on basis of AMPK inhibitory function and zinc homeostasis control function” (ZINCURE CORP., priority 2019, dated 2025).

Columns and labels:
[1] = tested on: cortical neurons of the cultured mice; experiment: Zinc toxicity in cortical neurons, cell viability assay (Cell Counting Kit-8); assay type: cell-based, mouse; settings: ZnCl2 400 μM for 10 minutes, compound 20 μM
Procedure: (§1) The mouse cortical neurons used in the present invention were extracted from the brain of a mouse embryo, and cultured in Dulbecco's modified Eagle's medium (DMEM, Gibco, Grand Island, NY, US) supplemented with 5% fetal bovine serum (FBS) and 5% horse serum (HS) under the condition of 95% humidity, 5% CO2 and 37° C. For activation and differentiation of the cells, the cells were grown to a density of 2×10^4 cells in a 24-well tissue culture plate and cultured in MEM medium without FBS and HS before treatment with zinc and compounds.
According to an embodiment of the present invention, based on the structural similarity of 1H10 of the present invention, 25 similar compounds having a similar structure were purchased from a compound library manufacturer (InterBioScreen, Russia; Akos, Germany). Then, in order to induce zinc toxicity in the cortical neurons of the cultured mice, ZnCl2 (400 μM) was treated for 10 minutes, and after 12.5 hours, the selected 25 compounds and the previously selected drug 1H10 were treated (20 μM) and it was determined whether cell death was inhibited through cell viability assay (Cell Counting Kit-8, Dojindo).

mouse cortical neurons [2] = experiment: Oxidative stress by H2O2 in cortical neurons, LDH analysis; assay type: cell-based; settings: H2O2 100 μM about 4 hours, compound 20 μM
Procedure: as §1
(§2) The present inventors investigated the inhibitory effect against oxidative stress in addition to zinc toxicity for the eight drugs and 1H10 of the above examples. Specifically, oxidative damage induced neurotoxicity by treating mouse cortical neurons with H2O2 (100 μM) and FeCl2 (100 μM) for about 4 hours and 20 hours, respectively, and treatment with the 8 selected drugs and 1H10 (20 μM). Thereafter, cytotoxicity was observed through LDH (Lactate Dehydrogenase) analysis.

mouse cortical neurons [3] = experiment: Excitotoxicity by NMDA in cortical neurons; assay type: cell-based; settings: NMDA 50 μM for 3 hours
Procedure: as §1
The present inventors investigated the inhibitory effect against excitotoxicity of the eight drugs and 1H10 of the above examples. Specifically, excitotoxicity was induced by treatment with NMDA (N-methyl-D-aspartate, 50 μM) in mouse cortical neurons for 3 hours.

mouse cortical neurons [4] = experiment: Apoptosis by etoposide (ETPS) in cortical neurons, LDH cytotoxicity; assay type: cell-based; settings: etoposide 10 μM for 20 hours, compound 20 μM
Procedure: as §1
The present inventors investigated the inhibitory effect against neuronal cell death of the eight drugs and 1H10 of the above examples. Specifically, neurotoxicity due to apoptosis was induced by treatment with etoposide (ETPS, 10 μM) in mouse cortical neurons for 20 hours. Then, the selected 8 drugs and 1H10 were treated (20 μM) and LDH cytotoxicity was observed.

[5] = tested on: mouse cortical neuron culture; experiment: Intrinsic toxicity in cortical neuron culture, LDH cytotoxicity; assay type: cell-based; settings: 40 μM; for intrinsic toxicity in words: 48 hours of drug treatment
Procedure: as §1
Specifically, 40 μM of each of the drugs was treated in a mouse cortical neuron culture, and LDH cytotoxicity was observed after 24 or 48 hours.

mouse cortical neurons [6] = experiment: Oxidative damage by iron (FeCl2) in cortical neurons, LDH analysis; assay type: cell-based; settings: FeCl2 100 μM about 20 hours, compound 20 μM
Procedure: as §1, §2

[7] = Zinc chelation in a test tube with FluoZin-3; assay type: binding; settings: 1 μM zinc, 5 μM FluoZin-3, compared with 1H10
Procedure: The present inventors treated FluoZin-3, a substance illuminate fluorescence if it bind to free zinc to cultivated neurons in order to verify the possibility of zinc chelation according to the treatment of 1H10 {(Z)-5-((1H-indol-3-yl)methylene)-2-((3-hydroxyphenyl)amino)thiazol-4(5H)-one} according to an embodiment of the present invention, and then measured cytosolic zinc level in the neurons for 60 min after exposing zinc (300 μM) for 15 minutes and removing the zinc. In addition, 20 μM zinc (ZnCl2) and NewPort Green DCF fluorophore, which emits fluorescence when it bind to zinc, were added to the test tube, and 1H10 of the present invention was treated at various concentrations. Clioquinol, a zinc chelator, and calcium ionophore Phosphorus ionomycin was used as controls.
In addition, after reacting various concentrations of (0, 0.5, 1, 2, 5, 10, 20, 40 μM) 1H10 or clioquinol with 1 μM zinc and 5 μM fluorescent labeled drug for free zinc (FluoZin-3) in a test tube and fluorescence values were measured. […] 1H10 of the present invention binds zinc even at a lower concentration than clioquinol, but at a high concentration, zinc binding strength is considered to be lower than that of clioquinol (FIG. 5B).

EAE = settings: zinc chelator administrated to EAE animals; cited from earlier work

Row | Compound | neuroprotective effect against zinc toxicity (cell viability) [1] | inhibition of H2O2 toxicity (LDH) (mouse cortical neurons [2]) | inhibition of excitotoxicity caused by NMDA (mouse cortical neurons [3]) | inhibitory effect against ETPS toxicity (LDH) (mouse cortical neurons [4]) | intrinsic toxicity in words [5] | intrinsic toxicity compared with 1H10 ([5]; 24 or 48 hours (time not specified)) | inhibition of oxidative damage caused by iron (LDH) (mouse cortical neurons [6]) | final FluoZin-3 fluorescence value [7] | T cell infiltration that cause encephalitis (EAE) | demyelination and microglia activity in EAE (EAE)
1 | Cc1ccc(NC2=NC(=O)/C(=C/c3c[nH]c4ccccc34)S2)cc1C [4B01, (5Z)-2-[(3,4-Dimethylphenyl)amino]-5-(1H-indol-3-ylmethylene)-1,3-thiazol-4(5H)-one] | neuroprotective effect | significantly inhibit | significantly inhibited | significant inhibitory effect | stronger intrinsic toxicity than 1H10 | – | – | – | – | –
2 | Cc1cccc(NC2=NC(=O)/C(=C/c3c[nH]c4ccccc34)S2)c1C [4B04, (5Z)-2-[(2,3-Dimethylphenyl)amino]-5-(1H-indol-3-ylmethylene)-1,3-thiazol-4(5H)-one] | neuroprotective effect | significantly inhibit | – | – | – | – | – | – | – | –
3 | CCCCc1ccc(NC2=NC(=O)/C(=C/c3c[nH]c4ccccc34)S2)cc1 [4C01, (Z)-5-((1H-indol-3-yl)methylene)-2-((4-butylphenyl)amino)thiazol-4(5H)-one] | neuroprotective effect | significantly inhibit | significantly inhibited | significant inhibitory effect | – | insignificant difference from 1H10 | – | – | – | –
4 | Cc1ccc(/N=C2\NC(=O)/C(=C/c3c(C)[nH]c4ccccc34)S2)cc1 [4C03, (2E,5Z)-5-((2-methyl-1H-indol-3-yl)methylene)-2-(p-tolylimino)thiazolidin-4-one] | neuroprotective effect | significantly inhibit | significantly inhibited | – | – | – | – | – | – | –
5 | Cc1ccc(/N=C2/NC(=O)/C(=C\c3c(C)[nH]c4ccccc34)S2)cc1 [4C04, (2Z,5E)-5-((2-methyl-1H-indol-3-yl)methylene)-2-(p-tolylimino)thiazolidin-4-one] | neuroprotective effect | significantly inhibit | significantly inhibited | – | – | – | – | – | – | –
6 | O=C1N=C(Nc2ccccc2C(=O)O)S/C1=C/c1c[nH]c2ccccc12 [4C06, (E)-2-((5-((1H-indol-3-yl)methylene)-4-oxo-4,5-dihydrothiazol-2-yl)amino)benzoic acid] | neuroprotective effect | – | – | significant inhibitory effect | – | – | – | – | – | –
7 | O=C1N=C(Nc2ccc(O)c(C(=O)O)c2)S/C1=C\c1c[nH]c2ccccc12 [4C08, (Z)-5-((5-((1H-indol-3-yl)methylene)-4-oxo-4,5-dihydrothiazol-2-yl)amino)-2-hydroxy benzoic acid] | neuroprotective effect | – | significantly inhibited | significant inhibitory effect | did not show intrinsic toxicity | – | inhibited | – | – | –
8 | Oc1c(I)cc(Cl)c2cccnc12 [clioquinol] | – | – | – | – | – | – | – | lower | inhibitored | reduced
